In data set [1] the target is human butyrylcholine esterase (Homo sapiens, UniProt P06276). In kind it is biochemical. As to the method: A more sensitive assay was used in order to discriminate alkylphenyl diphenyl phosphates, di-alkylphenyl phenyl phosphates and tri-alkylphenyl phosphates based on their potential ability to inhibit BChE.
The assay was essentially the same as that described in Example 2 except that the triaryl phosphate solution to be tested was prepared in pure ethanol instead of in sodium phosphate buffer.
Some experiments were performed with rat liver microsomes (RLM) because human liver microsomes (HLM) were not available in sufficient quantity. However, human butyrylcholine esterase was used in all assays.
Briefly, base stock triarylphosphate solutions were prepared by dissolution or dilution of a triarylphosphate of interest in ethanol at 2.5 mg/ml. Dilution solutions were then prepared in buffer containing 10% ethanol. 7.5 μl of each dilution solution comprising a triarylphosphate was added to a liver microsome mix in phosphate buffer to give a solution comprising microsomes, NADPH (1 mM) and triarylphosphate at a concentration ranging from 0.20 to 25 μg/ml. This pre-incubation was done at room temperature for 20-25 minutes. After incubation, 7.5 μl of BChE solution (at 9.75 μg/ml in phosphate buffer) was added to the resulting microsome-containing solution. The resulting solution was incubated for 20-25 minutes. The BChE residual activity was then measured as described in Example 2 hereabove.
For each triarylphosphates, the percentages of residual BChE activity were determined for triarylphosphate final concentrations ranging from 0.3 μg/ml to 20 μg/ml.
The Durad 125® combination was used as positive control. For reminder, Durad 125 consists in a mixture of meta and para isomers of tricresyl phosphate.

For data set [2], the target named is human butyrylcholinesterase (BChE) (Homo sapiens, UniProt P06276). The data set can be described thus: In vitro BChE activity assay after incubation with human liver microsomes and NADPH (Example 2, stock in phosphate buffer). In kind it is biochemical. The following applies: for BChE residual activity percentage: triaryl phosphate 25 μg/ml, BChE reference activity 3.76 nmol DTNB/min.
Method: As part of the study, the neurotoxicity of triaryl phosphates and combinations thereof was evaluated through an in vitro test using a model enzyme of esterase: the human butyrylcholinesterase. The human butyrylcholinesterase (BChE), or plasma cholinesterase, has an enzyme activity profile close to that of human acetylcholinesterase.
In this assay, triarylphosphates of interest are first incubated with human liver microsomes in the presence of NADPH to enable the production of potential metabolites. The incubation with microsomes is then followed by incubation with purified human BChE in the context of a micro-BChE activity assay.
This in vitro assay thus reproduces the in vivo metabolization of triaryl phosphates in the liver and enables to evaluate the anti-esterase activity of the resulting metabolites.
Six individual preparations of the same amount were collected to form a homogeneous pool representing the variability amongst the individuals, using a Potter-Elvehem Glass-Teflon homogenizer, with a 5 run-procedure in ice.
Mixture samples of 1.7 ml were collected in polypropylene centrifuge tubes, and thereafter stored at −80° C. The measured liver microsome content was 7.83 mg/ml.
A 250 μg/ml triaryl phosphate solution was prepared in a 50 mM sodium phosphate buffer at pH 7.4 by vigorously stirring in a vortex mixer for one minute. […]
The BChE activity is then measured according to the protocol defined by Ellman and al, (Ellman and al., 1961, Biochem Pharmacol, 7: 88-95), modified for use in micro-titration format. […]
Monitoring the TNB formation is effected by measuring the absorbance at 405 nm for 4 minutes at 23° C. with a microplate optical reader such as SpectraMax Plus spectrophotometer.
The BChE residual activity in the presence of triaryl phosphate is then expressed depending on the BChE reference activity, that is to say depending on the BChE activity measured in the presence of liver microsomes and NADPH and in the absence of triaryl phosphate (reference experiment).

The next data set relates to hens. The following applies: oral, Weiner and Jortner 1999; cited from earlier work.
The target in another data set is plasma BChE (Rattus norvegicus, UniProt Q9JKC1). The conditions noted are these: oral dose of 240 mg/kg, 24 hours post-dosing.
The mark [3] stands for this setting: rat liver microsomes (RLM), concentrations 1 μg/ml to 20 μg/ml.
[4] abbreviates: human liver microsomes (HLM), concentrations 1 μg/ml to 20 μg/ml.
Setting [5] is: human liver microsomes, up to 20 μg/ml (FIG. 3a).

Where two headings read alike, the source gives them in different places.

Sequence of human butyrylcholinesterase (BChE) (P06276 29-602): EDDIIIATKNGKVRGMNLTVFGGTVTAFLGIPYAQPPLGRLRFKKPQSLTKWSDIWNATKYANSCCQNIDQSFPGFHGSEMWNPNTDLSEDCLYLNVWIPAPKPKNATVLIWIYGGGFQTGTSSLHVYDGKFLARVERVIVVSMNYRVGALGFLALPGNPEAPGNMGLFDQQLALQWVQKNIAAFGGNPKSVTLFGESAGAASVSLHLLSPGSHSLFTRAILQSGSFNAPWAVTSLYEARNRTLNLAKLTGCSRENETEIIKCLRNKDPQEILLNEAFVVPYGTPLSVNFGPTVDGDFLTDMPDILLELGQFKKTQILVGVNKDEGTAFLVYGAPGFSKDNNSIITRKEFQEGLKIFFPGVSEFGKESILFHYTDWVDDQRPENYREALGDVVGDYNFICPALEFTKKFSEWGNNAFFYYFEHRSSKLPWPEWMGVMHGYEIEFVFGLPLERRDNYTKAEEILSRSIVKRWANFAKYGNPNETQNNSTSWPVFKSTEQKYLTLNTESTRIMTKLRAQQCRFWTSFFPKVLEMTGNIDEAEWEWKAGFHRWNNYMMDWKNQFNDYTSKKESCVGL
Sequence of human butyrylcholine esterase (P06276 29-602): as above
Sequence of plasma BChE (Q9JKC1 24-597): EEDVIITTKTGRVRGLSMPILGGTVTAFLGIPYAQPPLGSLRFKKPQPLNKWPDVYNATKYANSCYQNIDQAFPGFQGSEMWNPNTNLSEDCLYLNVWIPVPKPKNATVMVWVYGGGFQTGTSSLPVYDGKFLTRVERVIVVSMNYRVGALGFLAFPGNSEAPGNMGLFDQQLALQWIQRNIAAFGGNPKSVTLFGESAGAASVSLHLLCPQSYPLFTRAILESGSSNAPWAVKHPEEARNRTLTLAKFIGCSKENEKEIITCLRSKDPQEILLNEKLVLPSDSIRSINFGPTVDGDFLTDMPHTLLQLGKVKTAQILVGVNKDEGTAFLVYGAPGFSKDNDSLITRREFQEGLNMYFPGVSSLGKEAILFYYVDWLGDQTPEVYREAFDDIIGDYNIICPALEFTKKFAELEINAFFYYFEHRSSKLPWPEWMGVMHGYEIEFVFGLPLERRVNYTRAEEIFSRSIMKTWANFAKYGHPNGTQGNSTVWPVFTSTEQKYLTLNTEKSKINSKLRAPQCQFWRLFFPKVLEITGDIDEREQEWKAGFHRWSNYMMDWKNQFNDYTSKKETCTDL
Method for plasma BChE: The activity of BChE in the plasma of rats was determined following oral administration of 240, 120, 60 and 10 mg/kg of body weight of Durad 125 or tri-para-tert-butyl phosphate at 6 hours postdosing and 24 hours postdosing. Each dose solution was prepared in a corn oil vehicle and administered by gavage. Control animals were administered an appropriate amount of corn oil (witout any triarylphosphate compounds). All animals were fasted for approximately 16 h prior to administration of the dose containing Durad 125, tri-p-t-butylphenyl phosphate or only corn oil.
Three to six animals per time point and per dose were humanely anesthetized, and sacrificed. For each animal, the blood was collected and the plasma was separated by centrifugation. The plasma samples were then stored at −80° C. until performing the BChE activity assay.
The BChE activity assay was performed as previously described according to Ellman et al (Biochem. Pharmacol. 7, 88-95).

Take `CC(C)(C)c1cccc(OP(=O)(Oc2cccc(C(C)(C)C)c2)Oc2cccc(C(C)(C)C)c2)c1` [tri-meta-tert-butylphenyl phosphate]: in data set [1], the “Minimal BChE residual activity” value is reported as >100%.

In the case of dodecylphenyl diphenyl phosphate, the “Minimal BChE residual activity” value in data set [1] (setting [3]) was determined as 16%.

Consider `CC(C)(C)c1ccccc1OP(=O)(Oc1ccccc1C(C)(C)C)Oc1ccccc1C(C)(C)C` [tri-ortho-tert-butylphenyl phosphate], for which, in data set [1], the “Minimal BChE residual activity” value is on record as >100%.

In the case of `Cc1ccccc1OP(=O)(Oc1ccccc1C)Oc1ccccc1C` [C6, tri-ortho-cresyl phosphate], the “BChE residual activity percentage” value in data set [2] is recorded as “very low”. For the same compound, the neurotoxicity entry in the data set with hens is “highly neurotoxicity”.

Take `O=P(Oc1ccccc1)(Oc1ccccc1)Oc1ccccc1` [C7, tri-phenylphosphate]: in data set [2], the “BChE inhibiting potential after incubation” value was “non negligible inhibiting potential” and the “BChE residual activity percentage” value was 44.8 +/− 10.4%. Further, the neurotoxicity result in the data set with hens is on record as “non neurotoxic or poorly neurotoxic”.

For `CC(C)(C)c1ccc(OP(=O)(Oc2ccc(C(C)(C)C)cc2)Oc2ccc(C(C)(C)C)cc2)cc1` [P1, Tri-para-tert-butylphenyl phosphate], the “inhibition of plasma BChE” value on plasma BChE is reported as “does not induce BChE inhibition”. Besides, the “Minimal BChE residual activity” value in data set [1] (setting [4]) was 90%; in data set [1] (setting [3]) it was >100%. In addition, in data set [1] (setting [5]), the “inhibition of BChE” value is on record as “did not induce a significant inhibition of BChE”.

On to `CC(C)c1ccccc1OP(=O)(Oc1ccccc1C(C)C)Oc1ccccc1C(C)C` [P3, Tri-ortho-isopropylphenyl phosphate], for which, in data set [1], the “Minimal BChE residual activity” value was determined as 72.6%.

`CC(C)(C)c1ccc(OP(=O)(Oc2ccccc2)Oc2ccc(C(C)(C)C)cc2)cc1` [di-para-tert-butylphenyl phenylphosphate]: the “Minimal BChE residual activity” value in data set [1] (setting [4]) is 85.2%. Besides, the “inhibition of BChE” value in data set [1] (setting [5]) is given as “did not induce a significant inhibition of BChE”.

With `CC(C)c1ccc(OP(=O)(Oc2ccccc2)Oc2ccc(C(C)C)cc2)cc1` [di-para-isopropylphenyl phenylphosphate], the “Minimal BChE residual activity” value in data set [1] (setting [3]) was 76.5%.

As to 1-methylnonylphenyl diphenyl phosphate, in data set [1] (setting [3]), the “Minimal BChE residual activity” value is recorded as 5.2%.

For the compound `CC(C)(C)c1ccc(OP(=O)(Oc2ccccc2)Oc2ccccc2)cc1` [para-tert-butylphenyl diphenyl phosphate], the “Minimal BChE residual activity” value in data set [1] (setting [4]) is 44.9%. Also, the “inhibition of BChE” value in data set [1] (human liver microsomes, concentrations higher than 5 μg/ml (FIG. 3a)) is “at least 40%”.

With `CC(C)c1ccc(OP(=O)(Oc2ccc(C(C)C)cc2)Oc2ccc(C(C)C)cc2)cc1` [P2, Tri-para-isopropylphenyl phosphate], in data set [1], the “Minimal BChE residual activity” value is >100% and the “inhibition of BChE” value is “did not inhibit BChE”.

The values above are taken from US20120101015A1, “ANTI-WEAR AGENTS WITH A REDUCED NEUROTOXICITY” (priority 2009, published 2012).
